In patent US20240124412A1, “IKAROS ZINC FINGER FAMILY DEGRADERS AND USES THEREOF” (Gilead Sciences, Inc., priority 2021, published 2024):

Legend:
IKZF1 = target: T1, IKZF1 (Homo sapiens, UniProt Q13422+Q96SW2); assay: HiBiT protein tagging assay, in vitro IKZF1 degradation (HEK293); assay type: cell-based; details: HEK293, 18-24 hr incubation, normalized to DMSO control; for Dmax: read-out: IKZF1 Dmax (maximum degradation at the highest concentration tested); for DC50: read-out: IKZF1 EC50
T1 construct: expressed in transfected cells
Method: (§1) In vitro degradation of IKZF1 and IKZF2 was measured using HiBiT protein tagging and detection technology (Promega).
(§2) HiBiT technology (Promega) was used to develop the quantitative assays to measure the cellular IKZFs level by tagging an 11 amino acid HiBit peptides VSGWRLFKKIS (SEQ ID NO:1) to the protein of interest. Reporter plasmids were generated by fusing a linker sequence (GSSGGSSG; SEQ ID NO:2) followed by the HiBiT tag at the C terminus of IKZF1 and IKZF2. The fusion fragments were subsequently cloned into pcDNA5 pcDNA™5/FRT/TO plasmids (Thermo Fisher, cat #V652020) downstream of the Tetracycline operator. The resulting plasmids were co-transfected with pOG44 Flp-Recombinase Expression Vector (Thermo Fisher, cat #V600520) into Flp-In™ T-REx HEK293 line (Thermo Fisher, cat #R78077) and a stable cell pool was selected by adding 100 μg/ml of Hygromycin (Thermo Fisher, cat #10687010). The reporter cell enabled Tet-On inducible reporter expression from a single copy of the integrated gene.
(§3) On Day 1, Cells were grown to ˜80% confluency in TC medium (DMEM Glutamax (Gibco10569), 10% Tet free FBS (Takara 631106), and PenStrep Glutamin (Gibco 10378)) in tissue culture flasks. Doxycycline was then added to a final concentration of 1 μg/ml to induce reporter expression at 37° C. overnight.
(§4) On Day 2, 125 nL of serially-diluted solution of testing compounds were dispensed into 384-well white solid assay plates via ECHO acoustic liquid handler. Cells were lifted by 0.25% Trypsin (Gibco 25200) then pelleted by centrifugation (Beckman Avanti J-E) at 500×g for 5 min. Cell pellets were resuspended in TC medium at the concentration of 3e5/mL and 25 μL of cell suspension were added into each well of compound-spotted plates. The plates were returned to a 37° C. incubator overnight (18-24 hr).
(§5) On Day 3, assay plates were removed from the TC incubator and 25 μL of Nano-Glo lytic detection system (Promega, cat #N3030) was added to each well. Plates were incubated at r.t. for 3 min with shaking, and luminescence was read using an Envision reader (Perkin Elmer).
(§6) All raw data was normalized to DMSO control (final concentration: 0.5%) wells as POC and plotted out for EC50 and Dmax (Maximum degradation at the highest concentration tested in the assay).

IKZF2 = target: T2, IKZF2 (Homo sapiens, UniProt Q96SW2+Q9UKS7); assay: HiBiT protein tagging assay, in vitro IKZF2 degradation (HEK293); assay type: cell-based; details: HEK293, 18-24 hr incubation, normalized to DMSO control; for Dmax: HEK293, HiBiT assay, read-out: IKZF2 Dmax (maximum degradation at the highest concentration tested); for DC50: read-out: IKZF2 EC50
T2 construct: expressed in transfected cells
Method: as §1, §2, §3, §4, §5, §6

T2 sequence (Q9UKS7 1-500 isoform Q9UKS7-2): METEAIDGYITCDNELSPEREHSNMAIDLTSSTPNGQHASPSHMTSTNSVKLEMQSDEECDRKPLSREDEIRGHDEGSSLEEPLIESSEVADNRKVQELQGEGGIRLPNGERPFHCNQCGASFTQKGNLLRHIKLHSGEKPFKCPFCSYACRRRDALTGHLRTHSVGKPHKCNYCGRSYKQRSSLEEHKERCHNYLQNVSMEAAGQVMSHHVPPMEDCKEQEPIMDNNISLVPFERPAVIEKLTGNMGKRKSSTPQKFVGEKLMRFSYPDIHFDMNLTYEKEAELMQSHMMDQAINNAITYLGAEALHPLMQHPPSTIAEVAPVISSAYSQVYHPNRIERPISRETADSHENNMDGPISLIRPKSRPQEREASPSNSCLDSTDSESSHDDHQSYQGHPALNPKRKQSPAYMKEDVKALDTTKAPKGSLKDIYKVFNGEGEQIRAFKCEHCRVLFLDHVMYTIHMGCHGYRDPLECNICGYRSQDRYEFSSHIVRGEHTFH
T2 sequence (Q96SW2 whole entry): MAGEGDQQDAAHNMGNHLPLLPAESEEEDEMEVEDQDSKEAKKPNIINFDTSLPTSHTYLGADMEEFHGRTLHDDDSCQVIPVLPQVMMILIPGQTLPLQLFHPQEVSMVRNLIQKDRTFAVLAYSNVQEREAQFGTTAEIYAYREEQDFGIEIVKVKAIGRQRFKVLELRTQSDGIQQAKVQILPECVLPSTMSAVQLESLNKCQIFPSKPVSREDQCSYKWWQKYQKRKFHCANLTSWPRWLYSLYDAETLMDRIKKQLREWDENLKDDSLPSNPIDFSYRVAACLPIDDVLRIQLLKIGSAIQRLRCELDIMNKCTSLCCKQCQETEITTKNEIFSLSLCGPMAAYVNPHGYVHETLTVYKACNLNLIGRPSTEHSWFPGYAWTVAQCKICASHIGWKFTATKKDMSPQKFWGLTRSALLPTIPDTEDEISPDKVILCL
T2 sequence (Q16531 whole entry partner): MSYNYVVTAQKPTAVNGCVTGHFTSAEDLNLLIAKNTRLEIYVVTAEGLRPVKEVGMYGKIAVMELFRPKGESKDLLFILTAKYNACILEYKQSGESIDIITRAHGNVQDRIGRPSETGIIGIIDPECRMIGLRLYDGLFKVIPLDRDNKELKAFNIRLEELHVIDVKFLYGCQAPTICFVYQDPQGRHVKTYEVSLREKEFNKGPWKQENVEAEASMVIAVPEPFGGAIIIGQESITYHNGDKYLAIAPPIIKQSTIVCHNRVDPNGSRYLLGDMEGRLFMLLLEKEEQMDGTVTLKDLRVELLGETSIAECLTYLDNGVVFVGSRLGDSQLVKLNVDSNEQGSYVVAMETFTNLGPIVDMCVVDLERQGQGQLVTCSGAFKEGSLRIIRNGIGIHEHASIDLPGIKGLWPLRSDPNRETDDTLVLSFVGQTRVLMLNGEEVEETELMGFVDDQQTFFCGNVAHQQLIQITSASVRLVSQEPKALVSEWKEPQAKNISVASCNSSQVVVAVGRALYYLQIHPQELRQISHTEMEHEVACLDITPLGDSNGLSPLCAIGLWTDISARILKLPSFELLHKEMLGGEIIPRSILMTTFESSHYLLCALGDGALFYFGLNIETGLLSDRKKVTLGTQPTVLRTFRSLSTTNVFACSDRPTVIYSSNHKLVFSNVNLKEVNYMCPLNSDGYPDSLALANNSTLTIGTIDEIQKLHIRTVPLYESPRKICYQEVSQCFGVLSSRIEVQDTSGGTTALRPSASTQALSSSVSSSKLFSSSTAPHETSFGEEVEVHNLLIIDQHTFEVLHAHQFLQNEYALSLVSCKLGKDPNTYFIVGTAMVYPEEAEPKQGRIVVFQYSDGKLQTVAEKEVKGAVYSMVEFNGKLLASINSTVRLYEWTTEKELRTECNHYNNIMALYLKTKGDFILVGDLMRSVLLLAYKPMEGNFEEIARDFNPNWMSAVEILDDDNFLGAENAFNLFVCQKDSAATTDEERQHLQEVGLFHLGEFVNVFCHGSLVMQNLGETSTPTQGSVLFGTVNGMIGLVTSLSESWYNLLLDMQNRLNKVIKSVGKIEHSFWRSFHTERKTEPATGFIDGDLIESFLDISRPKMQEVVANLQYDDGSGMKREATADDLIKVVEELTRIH
T1 sequence (Q13422 whole entry): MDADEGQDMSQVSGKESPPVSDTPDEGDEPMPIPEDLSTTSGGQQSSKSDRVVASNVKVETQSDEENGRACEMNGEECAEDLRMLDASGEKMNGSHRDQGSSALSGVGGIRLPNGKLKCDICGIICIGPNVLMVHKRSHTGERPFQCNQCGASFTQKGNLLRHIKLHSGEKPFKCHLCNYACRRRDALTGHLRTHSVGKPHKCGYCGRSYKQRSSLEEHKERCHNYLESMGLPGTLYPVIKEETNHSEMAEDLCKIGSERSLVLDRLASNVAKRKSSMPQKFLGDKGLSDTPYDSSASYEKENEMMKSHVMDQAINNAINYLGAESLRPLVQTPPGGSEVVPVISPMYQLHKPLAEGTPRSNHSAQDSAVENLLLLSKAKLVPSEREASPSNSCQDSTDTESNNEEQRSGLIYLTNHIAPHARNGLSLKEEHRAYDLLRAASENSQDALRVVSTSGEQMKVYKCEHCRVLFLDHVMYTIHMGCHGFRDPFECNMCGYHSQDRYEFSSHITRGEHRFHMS
T1 sequence (Q96SW2 whole entry): as the sequence (Q96SW2 whole entry) above
T1 sequence (Q16531 whole entry partner): as the sequence (Q16531 whole entry partner) above

Dmax (IKZF1) [%]	DC50 (IKZF1) [nM]	Dmax (IKZF2) [%]	DC50 (IKZF2; HiBiT assay) [nM]	IKZF1 Dmax (maximum degradation at the highest concentration tested) (IKZF1) [%]	IKZF2 Dmax (maximum degradation at the highest concentration tested) (IKZF2; HiBiT assay) [%]	Compound
64	297	91	296			O=C1CCC(N2Cc3cc(CNC4CCC5(CCOCC5)CC4)ccc3C2=O)C(=O)N1 (stereo not shown) [Example 88]
	> 1000	66	243			O=C1CCC(N2Cc3cc(CNC45CCCC(O)(C4)C5)ccc3C2=O)C(=O)N1 (stereo not shown) [Example 143]
55	105	72	118			O=C1CCC(N2Cc3cc(CN[C@H]4CCC[C@@H](Oc5ccccc5)C4)ccc3C2=O)C(=O)N1 (stereo partly shown) [Example 110]
62	52	78	68			O=C1CCC(N2Cc3cc(CNC4CCC5(CCc6ccccc65)CC4)ccc3C2=O)C(=O)N1 (stereo not shown) [Example 114, 3-(5-(((2′,3′-dihydrospiro[cyclohexane-1,1′-inden]-4-yl)amino)methyl)-1-oxoisoindolin-2-yl)piperidine-2,6-dione]
61	122	87	106			C[C@]1(NCc2ccc3c(c2)CN(C2CCC(=O)NC2=O)C3=O)CCCN(Cc2ccccc2)C1 (stereo partly drawn) [Example 155, 3-(5-((((S)-1-benzyl-3-methylpiperidin-3-yl)amino)methyl)-1-oxoisoindolin-2-yl)piperidine-2,6-dione]
60	55	86	61			CC1(C)CCC(NCc2ccc3c(c2)CN(C2CCC(=O)NC2=O)C3=O)CC1 (stereo not shown) [Example 140]
92	58	96	35			C[C@@]1(NCc2ccc3c(c2)CN(C2CCC(=O)NC2=O)C3=O)CCCN(Cc2ccccc2)C1 (stereo partly drawn) [Example 156, 3-(5-((((R)-1-benzyl-3-methylpiperidin-3-yl)amino)methyl)-1-oxoisoindolin-2-yl)piperidine-2,6-dione]
53	151	93	79			O=C1CCC(N2Cc3cc(CN[C@@H]4CCCC[C@H]4OCc4ccccc4)ccc3C2=O)C(=O)N1 (stereo partly shown) [Example 126]

Continued, compound first:

Compound	Dmax (IKZF1) [%]	DC50 (IKZF1) [nM]	Dmax (IKZF2) [%]	DC50 (IKZF2; HiBiT assay) [nM]	IKZF1 Dmax (maximum degradation at the highest concentration tested) (IKZF1) [%]	IKZF2 Dmax (maximum degradation at the highest concentration tested) (IKZF2; HiBiT assay) [%]
C[C@@H](NCc1ccc2c(c1)CN(C1CCC(=O)NC1=O)C2=O)c1ccccc1 (stereo partly drawn) [Example 16, 3-(1-oxo-5-((((R)-1-phenylethyl)amino)methyl)isoindolin-2-yl)piperidine-2,6-dione]	71	41	54	260		
O=C1CCC(N2Cc3cc(CNC4CCC4)ccc3C2=O)C(=O)N1 (stereo not shown) [Example 41]	31	51	42	373		
O=C1CCC(N2Cc3cc(CN[C@H]4CCCC[C@H]4CO)ccc3C2=O)C(=O)N1 (stereo partly drawn) [Example 39, 3-(5-((((1S,2R)-2-(hydroxymethyl)cyclohexyl)amino)methyl)-1-oxoisoindolin-2-yl)piperidine-2,6-dione]		> 10000	37	4100		
O=C1CCC(N2Cc3cc(CN[C@H]4CC[C@@H](c5ccccc5)CC4)ccc3C2=O)C(=O)N1 (stereo partly drawn) [Example 31, 3-(1-oxo-5-((((1,4-cis)-4-phenylcyclohexyl)amino)methyl)isoindolin-2-yl)piperidine-2,6-dione]	97	3	83	40		
O=C1CCC(N2Cc3cc(CNC4CCN(c5ccccc5)CC4)ccc3C2=O)C(=O)N1 (stereo not shown) [Example 2, 3-(1-oxo-5-(((1-phenylpiperidin-4-yl)amino)methyl)isoindolin-2-yl)piperidine-2,6-dione]	80	19	83	58		
C[C@H](CO)NCc1ccc2c(c1)CN(C1CCC(=O)NC1=O)C2=O (stereo partly drawn) [Example 51, 3-[5-[[[(1R)-2-hydroxy-1-methyl-ethyl]amino]methyl]-1-oxo-isoindolin-2-yl]piperidine-2,6-dione]	36	263	17	1200		
O=C1CCC(N2Cc3cc(CNCc4cc5ccccc5[nH]4)ccc3C2=O)C(=O)N1 (stereo not shown) [Example 64]	80	61	45	276		
O=C1CCC(N2Cc3cc(CN[C@@H]4CCCN(Cc5ccccc5Cl)C4)ccc3C2=O)C(=O)N1 (stereo partly drawn) [Example 26, 3-(5-((((R)-1-(2-chlorobenzyl)piperidin-3-yl)amino)methyl)-1-oxoisoindolin-2-yl)piperidine-2,6-dione]	97	1	97	7		
O=C1CCC(N2Cc3cc(CNC4CCN(Cc5ccccc5)C(=O)C4)ccc3C2=O)C(=O)N1 (stereo not shown) [Example 62]		886		1700	27	27
O=C1CCC(N2Cc3cc(CN[C@H]4CCCN(Cc5ccccc5)C4)ccc3C2=O)C(=O)N1 (stereo partly drawn) [Example 21, 3-(5-((((S)-1-benzylpiperidin-3-yl)amino)methyl)-1-oxoisoindolin-2-yl)piperidine-2,6-dione]	79	56	72	261		
O=C1CCC(N2Cc3cc(CNCc4ccccc4)ccc3C2=O)C(=O)N1 (stereo not shown) [Example 33, 3-(5-((benzylamino)methyl)-1-oxoisoindolin-2-yl)piperidine-2,6-dione]	75	35	27	264		
O=C1CCC(N2Cc3cc(CN[C@@H]4C[C@H](F)CN(Cc5ccccc5)C4)ccc3C2=O)C(=O)N1 (stereo partly shown) [Example 45]	93	30	84	182		
O=C1CCC(N2Cc3cc(CNC4CCC(Cc5ccccc5)CC4)ccc3C2=O)C(=O)N1 (stereo not shown) [Example 10, 3-(5-(((4-benzylcyclohexyl)amino)methyl)-1-oxoisoindolin-2-yl)piperidine-2,6-dione]	51	121	80	117		
O=C1CCC(N2Cc3cc(CNC4CCN(c5ccccn5)CC4)ccc3C2=O)C(=O)N1 (stereo not shown) [Example 35, 3-(1-oxo-5-(((1-(pyridin-2-yl)piperidin-4-yl)amino)methyl)isoindolin-2-yl)piperidine-2,6-dione]	85	28	88	111		
O=C1CCC(N2Cc3cc(CN[C@H](CO)c4ccccc4)ccc3C2=O)C(=O)N1 (stereo partly shown) [Example 52]		> 10000	22	472		
C[C@@H](CO)NCc1ccc2c(c1)CN(C1CCC(=O)NC1=O)C2=O (stereo partly shown) [Example 53]	24	289	20	460		
O=C1CCC(N2Cc3cc(CN[C@H]4CC[C@@](O)(c5ccccc5)CC4)ccc3C2=O)C(=O)N1 (stereo partly shown) [Example 66]	77	102	83	319		
O=C1CCC(N2Cc3cc(CNC4CCc5cccnc5C4)ccc3C2=O)C(=O)N1 (stereo not shown) [Example 70, 3-(1-oxo-5-(((5,6,7,8-tetrahydroquinolin-7-yl)amino)methyl)isoindolin-2-yl)piperidine-2,6-dione]	42	89	67	303		
O=C1CCC(N2Cc3cc(CNC4CCCCC4)ccc3C2=O)C(=O)N1 (stereo not shown) [Example 5, 3-(5-((Cyclohexylamino)methyl)-1-oxoisoindolin-2-yl)piperidine-2,6-dione]	38	123	78	118		
O=C1CCC(N2Cc3cc(CNC4CCN(C(=O)OCc5ccccc5)CC4)ccc3C2=O)C(=O)N1 (stereo not shown) [Example 3, benzyl 4-(((2-(2,6-dioxopiperidin-3-yl)-1-oxoisoindolin-5-yl)methyl)amino)piperidine-1-carboxylate]	95	7	94	39		
